Key:
DA2 receptor = assay: Goldberg in situ femoral arterial preparation (DA2 assay), intra-arterial injection; type: in vivo, dog; settings: optimal response of test compound divided by optimal response of DPDA
Procedure: (§1) The compounds were subsequently tested following intra-arterial administration in an in situ renal and femoral arterial preparation in the dog, as developed by L.I. Goldberg, to test for DA1 and DA2 dopamine activity, respectively. Details of the methodology are provided in the European J. Pharmacol. 89 :137, 1983, as well as in Hypertension 6 :1-25, 1984.
as §1, with “compounds of this invention” for “compounds”, “were” for “were subsequently”, “Pharmacol. ,” for “Pharmacol.”, “Hypertension ,” for “Hypertension”, “1984. J. L. McNay, L. I. Goldberg JPET 151 :23-31, 1966.” for “1984.”
(§2) The compounds were injected directly into the renal or femoral artery for analysis of DA, or DA2 activity, respectively. […] The compounds were tested for relative activity in comparison to the standard DA, agonist, dopamine or the standard DA2 agonist, DPDA. Specific DA, or DA2 activity of the tested compound was verified by Sch 23390 or domperidone blockade.
(§3) Adult mongrel dogs of either sex (12-20 kg) were anesthetized with pentobarbital sodium (33 mg/kg, i.v.). The animals were intubated and ventilated with room air using a Harvard respirator.
as §1, with “compounds of this invention” for “compounds”, “were” for “were subsequently”, “Pharmacol. ,” for “Pharmacol.”, “Hypertension ,” for “Hypertension”, “1984. J. L. McNay, L. I. Goldberg JPET 151 :23-31, 1966” for “1984.”
as §2, with “of DA1” for “of DA,”, “standard DA1” for “standard DA,”
The thoracic aorta was catheterized with a Millar micro-tip (size 5F) transducer via the right carotid artery for blood pressure monitoring. The right external jugular vein was cannulated with PE-160 tubing for supplemental pentobarbital administration. The left femoral artery was isolated and an electromagnetic flowprobe of the appropriate size (8-11 mm circ.) was placed around the artery and connected to a Caroline Medical electromagnetic flowmeter. Surface ECG leads were placed subcutaneously on the chest and limbs to monitor heart rate. A 25 gauge 3/4" needle bent 90` , 4 mm from the tip, was placed in the femoral artery proximal to the probe and connected to an infusion pump delivering saline at a constant rate of 1 ml/min. Following a saline and bradykinin challenge (0.02 to 0.04 nmoles, in 0.2 ml saline, i.a.), a dose response curve for DPDA was generated by injecting 4-fold increasing doses i.a. ranging from 3 to 48 nmoles in 0.2 ml saline. Test compounds were injected similarly in 4-fold increasing doses up to 3000 nmoles. Compounds were then repeated at their optimal dose following domperidone pretreatment (10-40 Ilg/kg, iv).
Efficacy ratios were determined by division of the optimal response of the test compound by the optimal response of the standard agent. The optimal dose of compound was defined as that which produced a maximum increase in blood flow before causing a change in systemic blood pressure. ED50 values were derived by regression analysis from individually generated dose response curves. Potency ratios were the quotients calculated from the division of the standard agent EDso by the ED50 of the test compound. […] If the inhibition of the test compound was similar to that of dopamine or DPDA, the compound was considered to be a DA, or DA2 agonist, respectively.

DA1 receptor = assay: Goldberg in situ renal arterial preparation (renal DA1 assay), intra-arterial injection; type: in vivo, dog; settings: optimal response of test compound divided by optimal response of dopamine
Procedure: as §1
as §1, with “compounds of this invention” for “compounds”, “were” for “were subsequently”, “Pharmacol. ,” for “Pharmacol.”, “Hypertension ,” for “Hypertension”, “1984. J. L. McNay, L. I. Goldberg JPET 151 :23-31, 1966.” for “1984.”
as §2, §3
as §1, with “compounds of this invention” for “compounds”, “were” for “were subsequently”, “Pharmacol. ,” for “Pharmacol.”, “Hypertension ,” for “Hypertension”, “1984. J. L. McNay, L. I. Goldberg JPET 151 :23-31, 1966” for “1984.”
as §2, with “of DA1” for “of DA,”, “standard DA1” for “standard DA,”
The abdominal aorta was catheterized with a Millar micro-tip (size: 5F) transducer via the right femoral artery for blood pressure monitoring. The right femoral vein was cannulated with PE-160 tubing for iv saline infusion, as well as supplemental pentobarbital administration. The left renal artery was isolated through a lateral abdominal incision. An electromagnetic flowprobe of the appropriate size (8-11 mm circ.) was placed around the artery and connected to a Carolina Medical electromagnetic flowmeter. Surface ECG leads were placed subcutaneously on the chest and limbs to monitor heart rate. A 25 gauge 3/4" needle bent 90°, 4 mm from the tip, was placed in the renal artery proximal to the probe and connected to an infusion pump delivering saline at a constant rate of 1 ml/min. Following a saline and 1µg norepinephrine (NE) challenge, both given in an injection volume of 0.2 ml, the animal was treated with a phenoxybenzamine, 0.5 mg/kg/min i.a., infusion for a duration of 10-20 minutes as necessary to achieve a complete blockade of the NE challenge. Blood pressure was maintained by supplemental saline infusion (10-20 ml/kg, iv). Bradykinin, a standard for nonspecific vasodilation, was given at 0.60 nmole doses, in 0.2 ml saline, i.a., prior to generating a dose response curve for dopamine in which 4-fold increasing doses, ranging from 3 to 48 nmoles, were injected i.a. in 0.2 ml of saline (i.a. bolus). Test compounds were injected similarly in 4-fold increasing doses up to a maximum of 3000 nmoles. Compounds were then repeated at their optimal dose following Sch 23390 pretreatment (0.05 - 0.10 mg/kg, iv).
Efficacy ratios were determined by division of the optimal response of the test compound by the optimal response of the standard agent.

CCCN(CCC)CCc1ccc(O)c(O)c1 [DPDA, di-propyl dopamine, reference compound]
Relative Efficacy to DA2 Standard (DA2 receptor): 1.00

Cl.NCCc1ccc(O)c(O)c1 [Dopamine, 4-(2-aminoethyl)-1,2-Benzenediol hydrochloride]
Relative Efficacy to DA1 Standard (DA1 receptor): 1.00

Source: patent EP0426075A1, “Benzylpyrrolidine derivatives as dopamine agonists” (SYNTEX (U.S.A.) INC., priority 1989, dated 1991)
